Experimental data published in ChEMBL document CHEMBL1129532, “Geranylgeranyl diphosphate-based inhibitors of post-translational geranylgeranylation of cellular proteins” (J Med Chem, 1996).

Assays:
[1] = target: PC-3 cells (Homo sapiens); assay: Inhibition of human PC-3 prostate cancer cell line proliferation
[2] = target: T1, Geranylgeranyl transferase type I (Homo sapiens, UniProt P49354+P53609); assay: Inhibition of geranylgeranylation of P21rap in human PC-3 prostate cancer cells; format: functional, cell-based
[3] = target: T1, Geranylgeranyl transferase type I; assay: Inhibition of geranylgeranylation of P21rap in human PC-3 prostate cancer cells; values are per cent of control

residual activity [3] [%] | Compound | IC50 [1] [µM] | IC50 [2] [µM]
– | CCOP(=O)(O)CC(=O)NOC/C=C(\C)CC/C=C(\C)CC/C=C(\C)CCC=C(C)C | 35.1 | 40.2
10.8 | CC(C)=CCC/C(C)=C/CC/C(C)=C/CC/C(C)=C/COC(=O)NS(N)(=O)=O | 22.2 | 28.2
